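How tested: cells in 96-well plates exposed to compound for 48 hours at five concentrations. GI50: concentration for 50% inhibition of growth.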 Activity calls are given as the source filed them. Cut-off read from the data, not from the text of the source: active = GI50 up to about 1.1 µM and inactive = higher.
Legend:
Test in all cases: growth of human tumour cells (NCI), 48 h
ACHN = test system: ACHN
SK-OV-3 = test system: SK-OV-3
CAKI-1 = test system: CAKI-1
EKVX = test system: EKVX
A549 = test system: A549
IGROV-1 = test system: IGROV-1
COLO 205 = test system: COLO 205
HOP-18 = test system: HOP-18
SR = test system: SR
HT-29 = test system: HT-29
NCI-H522 = test system: NCI-H522
OVCAR-3 = test system: OVCAR-3
DLD-1 = test system: DLD-1
UACC-257 = test system: UACC-257
K562 = test system: K562
XF498 = test system: XF498
M14 = test system: M14
NCI-H23 = test system: NCI-H23
RPMI-8226 = test system: RPMI-8226
HL-60 = test system: HL-60
KM-20L2 = test system: KM-20L2
SNB-75 = test system: SNB-75
RXF 631 = test system: RXF 631
OVCAR-4 = test system: OVCAR-4
MOLT-4 = test system: MOLT-4
SF-268 = test system: SF-268
CCRF-CEM = test system: CCRF-CEM
SF-539 = test system: SF-539
OVCAR-8 = test system: OVCAR-8
NCI-H460 = test system: NCI-H460
TK-10 = test system: TK-10
RXF 393 = test system: RXF 393
HOP-62 = test system: HOP-62
DMS-114 = test system: DMS-114
SW-620 = test system: SW-620
SK-MEL-5 = test system: SK-MEL-5
UACC-62 = test system: UACC-62
SK-MEL-28 = test system: SK-MEL-28
SNB-19 = test system: SNB-19
786-0 = test system: 786-0
HOP-92 = test system: HOP-92
M19-MEL = test system: M19-MEL
LXFL 529 = test system: LXFL 529
KM12 = test system: KM12
HCT-116 = test system: HCT-116
U-251 = test system: U-251
SF-295 = test system: SF-295
Malme-3M = test system: Malme-3M
A498 = test system: A498
LOX IMVI = test system: LOX IMVI
SN12C = test system: SN12C
NCI-H226 = test system: NCI-H226
SNB-78 = test system: SNB-78
UO-31 = test system: UO-31
HCT-15 = test system: HCT-15
DMS-273 = test system: DMS-273
HCC 2998 = test system: HCC 2998
SK-MEL-2 = test system: SK-MEL-2
OVCAR-5 = test system: OVCAR-5

Measured: GI50

NS(=O)(=O)c1ccc(NC(=O)c2cccn3c(=O)c4ccccc4nc23)cc1
inactive: ACHN > 100 µM | SK-OV-3 > 100 µM | CAKI-1 > 100 µM | EKVX > 100 µM | A549 > 100 µM | IGROV-1 > 100 µM | COLO 205 > 100 µM | HOP-18 > 100 µM | SR 79.8 µM | HT-29 > 100 µM | NCI-H522 > 100 µM | OVCAR-3 > 100 µM | DLD-1 > 100 µM | UACC-257 > 100 µM | K562 > 100 µM | XF498 > 100 µM | M14 > 100 µM | NCI-H23 > 100 µM | RPMI-8226 > 100 µM | HL-60 > 100 µM | KM-20L2 > 100 µM | SNB-75 > 100 µM | RXF 631 > 100 µM | OVCAR-4 > 100 µM | MOLT-4 80.2 µM | SF-268 > 100 µM | CCRF-CEM > 100 µM | SF-539 > 100 µM | OVCAR-8 > 100 µM | NCI-H460 > 100 µM | TK-10 > 100 µM | RXF 393 > 100 µM | HOP-62 > 100 µM | DMS-114 > 100 µM | SW-620 > 100 µM | SK-MEL-5 > 100 µM | UACC-62 > 100 µM | SK-MEL-28 > 100 µM | SNB-19 > 100 µM | 786-0 > 100 µM | HOP-92 > 100 µM | M19-MEL > 100 µM | LXFL 529 > 100 µM | KM12 41.2 µM | HCT-116 > 100 µM | U-251 > 100 µM | SF-295 > 100 µM | Malme-3M > 100 µM | A498 > 100 µM | LOX IMVI 86.3 µM | SN12C > 100 µM | NCI-H226 > 100 µM | SNB-78 > 100 µM | UO-31 85.5 µM

C/C(Cc1ccccc1)=N\NC(N)=S
inactive: ACHN > 100 µM | DMS-273 > 100 µM | SK-OV-3 > 100 µM | IGROV-1 > 100 µM | COLO 205 > 100 µM | HOP-18 > 100 µM | K562 > 100 µM | XF498 > 100 µM | M14 > 100 µM | NCI-H23 > 100 µM | RPMI-8226 92.9 µM | HL-60 > 100 µM | KM-20L2 > 100 µM | SNB-75 > 100 µM | RXF 631 > 100 µM | OVCAR-4 > 100 µM | MOLT-4 > 100 µM | CCRF-CEM > 100 µM | SF-539 > 100 µM | NCI-H460 > 100 µM | RXF 393 70.1 µM | DMS-114 76 µM | UACC-62 > 100 µM | SK-MEL-28 > 100 µM | SNB-19 > 100 µM | HOP-92 67.1 µM | M19-MEL > 100 µM | LXFL 529 > 100 µM | U-251 > 100 µM | A498 > 100 µM | LOX IMVI > 100 µM | SN12C > 100 µM | SNB-78 > 100 µM
> 100 µM: HCT-15

Nc1nc2c3c(ncn3CC(O)CO2)n1 (stereo not drawn)
inactive: ACHN > 100 µM | DMS-273 > 100 µM | SK-OV-3 > 100 µM | CAKI-1 > 100 µM | HCC 2998 > 100 µM | A549 > 100 µM | IGROV-1 > 100 µM | COLO 205 > 100 µM | HOP-18 > 100 µM | SR > 100 µM | HT-29 7.6 µM | NCI-H522 > 100 µM | OVCAR-3 > 100 µM | DLD-1 > 100 µM | UACC-257 > 100 µM | K562 > 100 µM | M14 > 100 µM | NCI-H23 > 100 µM | RPMI-8226 > 100 µM | HL-60 > 100 µM | KM-20L2 > 100 µM | SNB-75 10.8 µM | RXF 631 > 100 µM | OVCAR-4 > 100 µM | SK-MEL-2 > 100 µM | MOLT-4 > 100 µM | SF-268 > 100 µM | CCRF-CEM > 100 µM | SF-539 > 100 µM | OVCAR-8 > 100 µM | NCI-H460 > 100 µM | TK-10 > 100 µM | RXF 393 > 100 µM | HOP-62 > 100 µM | DMS-114 > 100 µM | SW-620 > 100 µM | SK-MEL-5 > 100 µM | UACC-62 > 100 µM | SK-MEL-28 > 100 µM | SNB-19 > 100 µM | 786-0 > 100 µM | HOP-92 > 100 µM | M19-MEL 6.31 µM | LXFL 529 > 100 µM | KM12 > 100 µM | OVCAR-5 > 100 µM | HCT-116 > 100 µM | U-251 > 100 µM | SF-295 > 100 µM | Malme-3M > 100 µM | A498 > 100 µM | LOX IMVI > 100 µM | SN12C > 100 µM | NCI-H226 > 100 µM | SNB-78 > 100 µM | UO-31 > 100 µM
> 100 µM: HCT-15

COC(=O)c1c/c(=N\NC(=O)CC(=O)Nc2ccccc2Cl)c2ccccc2o1
> 100 µM: HCT-15
inactive: ACHN > 100 µM | DMS-273 > 100 µM | SK-OV-3 > 100 µM | CAKI-1 > 100 µM | HCC 2998 65.3 µM | EKVX > 100 µM | A549 > 100 µM | IGROV-1 > 100 µM | COLO 205 > 100 µM | SR > 100 µM | HT-29 > 100 µM | NCI-H522 > 100 µM | OVCAR-3 > 100 µM | DLD-1 > 100 µM | UACC-257 > 100 µM | K562 > 100 µM | XF498 > 100 µM | M14 > 100 µM | NCI-H23 > 100 µM | RPMI-8226 > 100 µM | HL-60 > 100 µM | KM-20L2 > 100 µM | SNB-75 > 100 µM | RXF 631 > 100 µM | OVCAR-4 > 100 µM | SK-MEL-2 > 100 µM | MOLT-4 > 100 µM | SF-268 > 100 µM | SF-539 > 100 µM | OVCAR-8 > 100 µM | NCI-H460 > 100 µM | TK-10 > 100 µM | HOP-62 > 100 µM | DMS-114 > 100 µM | SW-620 > 100 µM | SK-MEL-5 > 100 µM | UACC-62 > 100 µM | SK-MEL-28 > 100 µM | SNB-19 > 100 µM | 786-0 > 100 µM | LXFL 529 > 100 µM | KM12 > 100 µM | OVCAR-5 > 100 µM | HCT-116 > 100 µM | U-251 > 100 µM | SF-295 > 100 µM | A498 > 10 µM | LOX IMVI > 100 µM | SN12C > 100 µM | NCI-H226 27.7 µM | SNB-78 > 100 µM | UO-31 91.4 µM

COc1cc(-c2nccc3cc(OC)c(OC)cc23)ccc1O
inactive: ACHN 44.9 µM | DMS-273 43.5 µM | SK-OV-3 68.2 µM | CAKI-1 21.3 µM | HCC 2998 > 100 µM | EKVX 35.6 µM | A549 > 100 µM | IGROV-1 80 µM | COLO 205 40.5 µM | HOP-18 21.1 µM | SR 30.3 µM | HT-29 30.8 µM | NCI-H522 35.8 µM | OVCAR-3 49.3 µM | DLD-1 76.4 µM | UACC-257 69.2 µM | K562 40.8 µM | XF498 25.4 µM | M14 45.9 µM | NCI-H23 32.4 µM | RPMI-8226 21.4 µM | HL-60 17.7 µM | KM-20L2 33.7 µM | SNB-75 75.7 µM | RXF 631 62.4 µM | OVCAR-4 68.4 µM | SK-MEL-2 > 100 µM | MOLT-4 29.2 µM | CCRF-CEM 38.5 µM | SF-539 35.4 µM | OVCAR-8 44.1 µM | NCI-H460 27.8 µM | TK-10 42 µM | HOP-62 > 100 µM | SW-620 55.2 µM | SK-MEL-5 32.6 µM | UACC-62 30 µM | SK-MEL-28 > 100 µM | SNB-19 68.1 µM | 786-0 78 µM | HOP-92 23.9 µM | M19-MEL > 100 µM | LXFL 529 29.7 µM | KM12 48.3 µM | OVCAR-5 34.9 µM | HCT-116 49 µM | U-251 70.6 µM | SF-295 25.6 µM | Malme-3M > 100 µM | LOX IMVI 36.6 µM | SN12C 48.2 µM | NCI-H226 > 100 µM | SNB-78 > 100 µM | UO-31 > 100 µM
27.9 µM: HCT-15

Source: ChEMBL document CHEMBL1201862, “PubChem BioAssay data set” (2004)
